The numbers were not newly measured in patent US20220073443A1, “CANNABINOID FORMULATIONS AND METHODS OF MAKING SAME” (BOTANECO INC., priority 2018, published 2022), which cites them from elsewhere.

The conditions of the series: consumed by smoking marihuana; average.

Consider `CCCCCc1cc(O)c2c(c1)OC(C)(C)[C@@H]1CCC(C)=C[C@@H]21` [Δ^9-THC, Δ^9-tetrahydrocannabinol], for which the “bioavailability of pulmonary-delivered Δ9-THC” value is given as around 30%.
